Experimental data: US20060159669A1, “Novel uses of PPAR modulators and professional APCs manipulated by the same” (priority 2003, published 2006)
Entries after “also recorded” stand apart in the source; their conditions may differ.

Assays:
CD1d = CD1d mRNA expression (RT-PCR, Affymetrix microarray) in monocyte-derived DC; assay type: cell-based, human; settings: IDC; for Induction of CD1d by receptor-specific agonists: 2.5 microM RSG, 200 nM GW7845, 1 microM GW501516, 20 microM WY14643, 1 microM T0901317, FIG. 5B
Description: DC generation and maturation. Highly enriched monocytes (98% CD14+) were obtained from buffy coats of healthy donors (provided by the local blood center) by Ficoll gradient centrifugation and immunomagnetic cell separation using anti-CD14-conjugated microbeads (VarioMACS; Miltenyi Biotec). Human monocyte-derived IDCs were prepared as described previously (Sallusto and Lanzavecchia, 1994) with minor modification. In brief, monocytes were resuspended into six-well culture dishes at a density of 1.5×10^6 cells/ml and cultured in RPMI 1640 supplemented with 10% FBS (Invitrogen), containing 800 U/ml GM-CSF (Leucomax) and 500 U/ml IL-4 (Peprotech). Cells were cultured for 5 or 6 days and the IL-4 and GM-CSF addition was repeated at day 2 to obtain a population of immature DCs. In some experiments FBS was replaced with human AB serum (Sigma). To obtain MDCs, IDCs were treated with a mixture of cytokines: 10 ng/ml TNF-alpha (Peprotech), 10 ng/ml IL-1beta (Peprotech), 1000 U/ml IL-6 (Peprotech), 1 microg/ml PGE2 (Sigma) and 800 U/ml GM-CSF for 24 hr (Jonuleit et al., 1997).
(§1) Ligands or vehicle control (50% DMSO/ethanol) were added to the cell culture starting from the first day.
Microarray experiment. Total RNA was isolated using Trizol Reagent (Invitrogen) and further purified by using the RNeasy kit (Quiagen). cRNA was generated from 5 microg of total RNA by using the SuperScript Choice kit (Invitrogen) and the High Yield RNA transcription labeling kit (Enzo Diagnostics). Fragmented cRNA was hybridized to Affymetrix (Santa Clara, Calif.) arrays (HU95A) according to Affymetrix standard protocols. Preliminary data analysis was performed by the Microarray Core Facility at University of California at Irvine. Further analysis was performed using GeneSpring 6.0 (Silicon Genetics, Redwood City, Calif.). These analyses provided a signal for each specific transcript that was subsequently normalized by comparing to the median signal (arbitrary value of 1.0) obtained from the whole array.
(§2) Real-time RT-PCR. […] The following primers and probes were used: […]

iNKT cells = experiment: Expansion of iNKT cells by alpha-GalCer pulsed DC in autologous PBMC coculture; assay type: cell-based, human; settings: for Induction of iNKT (Valpha24+ Vbeta11+) cell expansion vs untreated DC: 5-day coculture
Description: FACS analysis. Cell staining was performed using alpha-GalCer-loaded APC-labeled CD1d-tetramer (kindly provided by A. Herbelin) and FITC-, Cyc- or PE-conjugated mAbs. Labeled antibodies for flow cytometry included anti-CD161-Cyc, CD8-PE, CD25-PE, CD1a-PE, CD1d-PE, CD86-PE, CD83-PE, CD206-PE, CD3- FITC, CD36-FITC, CD80-FITC, CD209-FITC, HLA-DR-FITC and isotype-matched controls (BD PharMingen), anti-Vbetal 1-PE and anti-Valpha24-FITC (Immunotech). The cells were assessed for fluorescence intensity using EPICS Elite flow cytometer (Beckman Coulter) or with FACS Calibur cytometer (Beckton Dickinson). Data analysis was performed using WinMDI software (Joseph Trotter, The Scripps Research Institute, La Jolla, Calif.).
Expansion of iNKT cells. IDCs were treated with or without the inflammatory mixture as described previously and with 100ng/ml alpha-GalCer for 24 hr to obtain alpha-GalCer-loaded MDC or IDC, respectively. alpha-GalCer pulsed IDCs or MDCs (2×10^5 cells/ml) were cocultured with 2×10^6 monocyte depleted autologous PBMC for 5 days in 24 well plates. The expansion of iNKT cells was monitored by quantifying Valpha24+ Vbetal 1+ and Valpha24+ CD161+ cells by FACS analysis. The specificity of CD1d-restricted NKT cells was also verified by alpha-GalCer loaded APC-labelled CD1d tetramer staining.

PPARg = molecular target: T1, PPARg (Homo sapiens, UniProt P37231); experiment: FABP4 and other PPARg target gene mRNA expression by real-time RT-PCR in differentiating monocyte-derived DC; assay type: cell-based; settings: for Induction of FABP4 by receptor-specific agonists: IDC, 2.5 microM RSG, 200 nM GW7845, 1 microM GW501516, 20 microM WY14643, 1 microM T0901317, FIG. 5A
T1 construct: endogenous in cells; host or cells: human monocyte-derived dendritic cells (CD14+ monocytes from buffy coats, GM-CSF + IL-4)
T1 sequence (P37231 1-505): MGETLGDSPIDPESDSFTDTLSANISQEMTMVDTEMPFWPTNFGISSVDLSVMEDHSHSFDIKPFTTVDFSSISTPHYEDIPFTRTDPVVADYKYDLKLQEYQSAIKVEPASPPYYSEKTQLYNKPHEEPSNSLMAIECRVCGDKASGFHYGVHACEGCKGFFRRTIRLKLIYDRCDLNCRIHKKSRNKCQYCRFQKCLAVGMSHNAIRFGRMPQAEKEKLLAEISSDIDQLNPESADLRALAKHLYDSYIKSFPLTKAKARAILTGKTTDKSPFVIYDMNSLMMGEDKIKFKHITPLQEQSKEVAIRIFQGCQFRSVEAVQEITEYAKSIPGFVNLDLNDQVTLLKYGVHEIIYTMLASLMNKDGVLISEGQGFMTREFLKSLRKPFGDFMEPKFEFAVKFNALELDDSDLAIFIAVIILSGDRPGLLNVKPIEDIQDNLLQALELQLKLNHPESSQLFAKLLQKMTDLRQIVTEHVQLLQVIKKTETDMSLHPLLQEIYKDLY
Description: DC generation and maturation. Highly enriched monocytes (98% CD14+) were obtained from buffy coats of healthy donors (provided by the local blood center) by Ficoll gradient centrifugation and immunomagnetic cell separation using anti-CD14-conjugated microbeads (VarioMACS; Miltenyi Biotec). […] Cells were cultured for 5 or 6 days and the IL-4 and GM-CSF addition was repeated at day 2 to obtain a population of immature DCs. In some experiments FBS was replaced with human AB serum (Sigma).
as §1, §2

## O=S(=O)(c1ccccc1)N(CC(F)(F)F)c1ccc(C(O)(C(F)(F)F)C(F)(F)F)cc1 [T0901317]
CD1d
  Induction of CD1d by receptor-specific agonists: failed to activate CD1d

## CN(CCOc1ccc(CC2SC(=O)NC2=O)cc1)c1ccccn1 (stereo not shown) [RSG, Rosiglitazone]
iNKT cells; alpha-GalCer loaded RSG treated IDC, depending on the donor
  Induction of iNKT (Valpha24+ Vbeta11+) cell expansion vs untreated DC: 1.5-10.25 fold
iNKT cells; alpha-GalCer loaded RSG treated MDC as stimulator
  Induction of iNKT (Valpha24+ Vbeta11+) cell expansion vs untreated DC: 1.1-4 fold

## Cc1cccc(Nc2cc(Cl)nc(SCC(=O)O)n2)c1C [Wy14,643]
PPARg
  Induction of FABP4 by receptor-specific agonists: much less potently

## O=C(Nc1ccccc1)c1cc([N+](=O)[O-])ccc1Cl [GW9662]
PPARg; 5 microM GW9662, FBS replaced with human AB serum
  Block of the more pronounced FABP4 increase in human AB serum: blocked effectively
PPARg; 5 microM GW9662, untreated and 2.5 microM RSG treated DC
  Inhibition of FABP4 up-regulation by PPARg antagonist: able to prevent the up-regulation of FABP4; also recorded: inhibited
CD1d; 5 microM GW9662 with 2.5 microM RSG
  Inhibition of PPARg specific induction of CD1d by antagonist: inhibited

## CCCCCCCCCCCCCCCCCCCCCCCCCC(=O)N[C@@H](CO[C@H]1O[C@H](CO)[C@H](O)[C@H](O)[C@H]1O)[C@H](O)[C@H](O)CCCCCCCCCCCCCC [alpha-GalCer, alpha-galactosyl-ceramide]
iNKT cells; DC pulsed with 100ng/ml alpha-GalCer for 24 hr, 5 days coculture
  Expansion of Valpha24+ Vbeta11+ iNKT cells by glycolipid loading of DC: necessary for the potent induction; also recorded: remarkable expansion of iNKT cells

## COC(=O)c1ccccc1N[C@@H](Cc1ccc(OCCc2nc(-c3ccccc3)oc2C)cc1)C(=O)O [GW7845]
PPARg
  Induction of FABP4 by receptor-specific agonists: specifically up-regulated
CD1d
  Induction of CD1d by receptor-specific agonists: turn on gene expression
